Source: patent US11021687B2, “Production of differentiated enteroendocrine cells and insulin producing cells” (Massachusetts Institute of Technology, priority 2016, dated 2021)
Read-outs that look alike come from different tables or passages of the source.

Tests used:
[1] = tested on: gastrointestinal stem cells; test: Insulin / Nkx6.1 mRNA expression (qPCR), 3-stage conversion to insulin producing cells; format: cell-based, mouse
Text: “mRNA Insulin Expression Assay” refers to an assay used to determine the relative insulin mRNA expression level of a cell population. For example, the assay can determine the insulin mRNA level expressed in a cell population treated to increase the expression of insulin in the cells, as compared to an untreated population of cells. In an exemplary mRNA Insulin Expression Assay, the cells were collected and the RNA is extracted from the cells using an RNA extraction kit (such as RNeasy Mini kit, Qiagen). The insulin expression level is then assessed by Quantitative real-time PCR using a one-step qPCR kit (such as QuantiTech Probe PCR kit, Qiagen) and Ins1 or Ins2 primers and probes (such as the commercially available TaqMan probe for mouse Ins1 and Ins2, Life Technologies). The relative insulin mRNA expression can be determined relative to a baseline or other marker, such as Hprt mRNA expression level or other baseline marker.
(§1) Organoids or differentiated cells were harvested and RNA was extracted using RNeasy Micro Kit (Qiagen) according to the manufacturer's instruction. Quantitative real-time PCR was performed with QuantiTect Probe PCR kit (Qiagen) using commercially available primers and TaqMan probes (Life Technologies).
Based on the protocol to convert gastrointestinal stem cells into insulin producing cells, a 3-stage process was developed, specifically, Day 0-1 as Stage 1, Day 1-3 as Stage 2, Day 3-5 as Stage 3. After Stage 3, the cells turn on significant level of Insulin expression as indicated by Ins-EGFP expression and qPCR for Insulin mRNA expression. Optionally, the cells can be further cultured for 1-2 weeks, as Stage 4. For each stage, a set of specific combination of small molecules (and/or growth factors) were added. The objective was to optimize the reprogramming protocol to increase insulin expression, specifically Insulin mRNA expression for each stage, by screening and testing new small molecules (or growth factors).

[2] = tested on: differentiated cell colonies
[3] = tested on: differentiated intestinal stem cells; test: Insulin-GFP reporter expression (FACS) in differentiated intestinal stem cells; format: cell-based, mouse; conditions: for optimal concentration in inducing insulin-GFP expression: dose response, day 5; for percentage of Insulin-GFP+ cells: further addition to 616452, day 5
Text: “Insulin Activity Assay” as used herein is an assay used to determine the extent to which insulin gene transcription, translation or insulin release has been activated in a cell population. In an exemplary Insulin Activity Assay, the initial cells are isolated from the intestine of an Insulin-GFP mouse such as […] mouse (also referred to as the MIT-GFP mouse, Jackson lab stock no.: 006864). Intestinal crypts are isolated from the proximal half of the intestine. […] The cells are then passaged for 1-2 times to create a starting cell population for the assay. To test the capacity of agents to activate insulin gene transcription, translation or insulin release, the cells are incubated with appropriate culture media (e.g. aforementioned crypt culture media), growth factors and/or other agents being tested. Appropriate culture media, including crypt culture media as well as the agents being assessed, are added into each well and incubated with the cells for a period of 2-10 days with media change every 2 days. The fraction of insulin-GFP positive cells (i.e., cells in which the insulin-GFP reporter is activated) can be quantified using a flow cytometer to measure the fraction of GFP+ cell population present in the total cell population. Also, the average insulin activity of a cell population can be measured by measuring the average mRNA expression level of insulin of the population normalized using suitable references or housekeeping genes (e.g., using mRNA expression of Hprt as a baseline).

[4] = tested on: intestinal stem cells; test: mRNA expression (qPCR) of ChgA and other lineage markers in differentiated intestinal stem cells; format: cell-based, mouse; conditions: for differentiation towards EEC (ChgA expression): added to Notch and EGFR/MEK/ERK inhibition combination without R-Spondin1; for ChgA expression of the differentiated cells: versus previous differentiation conditions (FIG. 21); for expression of functional EEC markers such as Gip, Gcg, Cck, Pyy: relative to reference gene Hprt
Text: “mRNA ChgA Expression Assay” refers to an assay used to determine the relative ChgA mRNA expression level in a cell population. For example, the assay can determine ChgA mRNA expression level of a differentiated cell population following treatment with agents being tested, as compared to an untested population of post-natal stem cells. In an example of an mRNA ChgA Expression Assay, the cells were collected and the RNA is extracted from the cells using an RNA extraction kit (such as RNeasy Mini kit, Qiagen). The ChgA expression level is then assessed by Quantitative real-time PCR using a one-step qPCR kit (such as QuantiTech Probe PCR kit, Qiagen) and ChgA primers and probes (such as commercially available Taqman probe for mouse ChgA, Life Technologies).
as §1
Cells were then cultured with EGF, Noggin, and DAPT (END), as well as small molecules. After 2-3 days of differentiation, the cells lysed and ChgA expression was measured by qRT-PCR.
Small molecules were further validated using a 24-well plate culture and the differentiation system. […] The expression of markers of secretory lineage cells including goblet cells (Muc2), enteroendocrine cells (ChgA), and Paneth cells (Lyz1) were measured.

[5] = tested on: intestinal stem cells; test: Ngn3 mRNA expression during EEC differentiation; format: cell-based, mouse; conditions: 2 days, added after removal of R-spondin1
Method: “Ngn3 Assay” as used herein is an assay used to determine the extent of expression of Ngn3 in cells, such as cells subjected to a differentiation protocol. In an exemplary Ngn3 Assay, RNA is isolated from cells that have been cultured according to a differentiation protocol, and quantitative real-time PCR is performed using commercially available primers and probes (such as Taqman probes) to determine an extent of Ngn3 expression in the cells.
as §1
There has been prior speculation that Ngn3 positive secretory progenitors differentiate to EECs (Genes Dev. 2002).

[6] = continuing culture of Islet-like Insulin expression cell colonies
[7] = added in step 2 of 2-step protocol
[8] = added in step 1 only versus both steps

COC(=O)C1=C(C)NC(C)=C([N+](=O)[O-])C1c1ccccc1C(F)(F)F (stereo not shown) [BayK 8644]
stages of addition giving highest activity [1]: highest activity when added in Stages 1-3
Insulin mRNA expression ([1]; added in Stage 1): increased
concentration of highest activity / optimal concentration in promoting Insulin expression ([1]; dose response): 2 µM
effect of removal [2, 6]: could be removed without much influence

CC(C)Oc1ccc(-c2cnc3c(-c4ccnc5ccccc45)cnn3c2)cc1 [DMH-1]
expression of Nkx6.1 and insulin ([1]; added in Stages 2-3): increased
effect of removal [2, 6]: could be removed without much influence

Nc1ncn([C@@H]2O[C@H](CO)[C@@H](O)[C@H]2O)c(=O)n1 [5-Aza, 5-Azacytidine]
optimal concentration in inducing insulin-GFP expression [3]: 0.5 to 1 µM
percentage of Insulin-GFP+ cells [3]: subsequently increased
cell death in the culture [2]: induced cell death

Cc1c[nH]c(-c2cnc(NCCNc3ccc(C#N)cn3)nc2-c2ccc(Cl)cc2Cl)n1 [CHIR99021, 6-[[2-[[4-(2,4-dichlorophenyl)-5-(5-methyl-1H-imidazol-2-yl)-2-pyrimidinyl]amino]ethyl]amino]-3-pyridinecarbonitrile]
differentiation towards EEC (ChgA expression) [4]: did not further increase
GFP expression ([3]; added in Step 1 to increase Wnt activation, 5 days): did not increase
Insulin mRNA expression ([1]; Stage 3, combined with T3): further increased
Insulin mRNA expression ([1]; added in Stage 3): greatly increased

COc1cc2ncnc(Nc3ccc(F)c(Cl)c3)c2cc1OCCCN1CCOCC1 [Gefitinib]
expression of Goblet cell marker (Muc2) and Paneth cell marker (Lyz1) ([4]; 24-well validation, END conditions): not similarly increased
ChgA expression ([4]; 96-well screening, END conditions, 2-3 days): increased
expression of enteroendocrine cell marker ChgA ([4]; multiple conditions (FIG. 6)): specifically increased
Ngn3 expression [5]: further decreased

Cc1cc(-c2ccc(CC(=O)Nc3ccc(-c4cccnc4)cc3)cc2)ccn1 [Wnt-C59]
Paneth cell marker Lyz1 expression ([4]; added in step 2): effectively decreased
ChgA expression [4, 7]: further increased
ChgA expression ([4]; delayed addition for 12-24 hours in step 2): further increases
ChgA expression of the differentiated cells [4]: further increased
percentage of Insulin-GFP+ cells [3]: subsequently increased
Insulin mRNA expression ([1]; addition delayed for 12 hours in Stage 2): increased
optimal dose in promoting Insulin and Nkx6.1 expression ([1]; dose response (FIG. 52)): 5 µM

Cc1ccc2nc(NC(=O)CSc3nc4c(c(=O)n3-c3ccccc3)SCC4)sc2c1 [IWP 2]
differentiation towards EEC (ChgA expression) [4]: did not further increase

Exendin-4: factor identified to increase Insulin mRNA expression
Insulin mRNA expression ([1]; added in Stage 3): increase

COc1cc2ncnc(Nc3ccc(NC(=O)c4ccccc4)cc3)c2cc1OC [Aurora Kinase Inhibitor II]
Insulin mRNA expression ([1]; added in Stage 3): increase

Cc1cccc(-c2n[nH]cc2-c2ccc3ncccc3n2)n1 [compound 616452, 2-[3-(6-methyl-2-pyridinyl)-1H-pyrazol-4-yl]-1,5naphthyridine]
expression of mature EEC markers (Gcg, Gip, Cck, Tph1, Sst, Sct, Pyy) ([4]; 2-step protocol): greatly increased
goblet cell marker Muc2 expression ([4]; 2-step protocol): decreased
Cck expression over the expression level in the ENR condition ([4]; 2-step protocol with Repsox): 430 ×
Gip expression over the expression level in the ENR condition ([4]; 2-step protocol with Repsox): 800 ×
Pyy expression over the expression level in the ENR condition ([4]; 2-step protocol with Repsox): 15,000 ×
Sct expression over the expression level in the ENR condition ([4]; 2-step protocol with Repsox): 300 ×
Tph1 expression over the expression level in the ENR condition ([4]; 2-step protocol with Repsox): 120 ×
ChgA level [4, 8]: comparable level
expression of mature EEC markers [4, 8]: greatly reduced
ChgA expression [4, 7]: greatly promoted
expression of functional EEC markers such as Gip, Gcg, Cck, Pyy [4]: greatly increase
optimal concentration in inducing insulin-GFP expression [3]: 5 µM
cells becoming GFP positive ([3]; during EEC differentiation from ISCs): about 1%
Insulin mRNA (Ins2) ([1]; added in Stage 1-3 compared with Stage 2-3): increased
optimal dose in promoting Insulin and Nkx6.1 expression ([1]; dose response): 10 to 15 µM
cell death in the culture [2]: induced cell death

N[C@@H](Cc1cc(I)c(Oc2ccc(O)c(I)c2)c(I)c1)C(=O)O [T3, Triiodothyronine]
Insulin mRNA expression ([1]; added in Stage 3): greatly increased

O=C1O[C@H]([C@@H](O)CO)C(O)=C1O [Vitamin C]
effect on conversion ([1]; added in Stage 2-3): beneficial effects
Insulin mRNA expression ([1]; added in Stage 3): did not show such effect

C=C[C@@]1(C)CC(=O)[C@]2(O)[C@@]3(C)[C@@H](O)CCC(C)(C)[C@@H]3[C@H](O)[C@H](OC(C)=O)[C@@]2(C)O1 [Forskolin]
cell survival ([2]; 50-100 μM, added in Stage 3): improved cell survival
cell survival [2, 6]: increased cell survival

O=C(O)c1ccc(O)c2ncccc12 [IOX1]
Insulin and Nkx6.1 expression ([1]; used at 5-10 μM): increased

CC(=O)N[C@@H](CS)C(=O)O [N-Acetylcysteine]
Insulin mRNA expression ([1]; Stage 3, combined with T3): further increased
Insulin mRNA expression ([1]; added in Stage 3): increased

O=C(NC1CC1)c1cc(-c2cccs2)on1 [ISX-9, N-cyclopropyl-5-(2-thienyl)-3-isoxazolecarboxamide]
expression of functional EEC markers such as Gip, Gcg, Cck, Pyy [4]: decreased
ChgA expression of the differentiated cells [4]: further increased
number of GFP+ cells ([3]; added to the combination, 5 days in culture): further increase
optimal dose in promoting Insulin and Nkx6.1 expression ([1]; dose response): 10 to 20 µM

Nc1ncn([C@H]2C[C@H](O)[C@@H](CO)O2)c(=O)n1 [5Aza, 5-aza-2′-deoxycytidine]
Insulin mRNA expression ([1]; treatment extended from Stage 1 only to Stage 1 and Stage 2): slightly increased

EGF: epidermal growth factor
EEC marker (ChgA, Gip, Gcg, CCK) expression on removing EGF from the media ([4]; 5 days): further increased
dead cells in the lumen of the differentiated cell colony ([2]; EGF removed in both steps): more dead cells
